Data reported in patent publication US8883798B2, “Pyrimidine compounds inhibiting the formation of nitric oxide and prostaglandin E2, method of production thereof and use thereof” (Ustav Organicke Chemie a Biochemie Akademie Ved CR, V.V.I., priority 2011, dated 2014).

Tested on: not given
Settings: not given

Compound | melting point
CN(C)/C=N/c1nc(Cl)c(-c2ccccc2)c(Cl)n1 [Substance 24, 4,6-dichloro-2-{[(dimethylamino)methylene]amino}-5-phenylpyrimidine] | 67 to 68 °C
CCCCc1c(Cl)nc(/N=C/N(C)C)nc1Cl [Substance 19, 5-butyl-4,6-dichloro-2-{[(dimethylamino)methylene]amino}pyrimidine] | 65 to 67 °C
C=CCc1c(Cl)nc(/N=C/N(C)C)nc1Cl [Substance 17, 5-allyl-4,6-dichloro-2-{[(dimethylamino)methylene]amino}pyrimidine] | 80 to 81 °C
CCC(C)c1c(Cl)nc(/N=C/N(C)C)nc1Cl (stereo not shown) [Substance 21, 5-sec-butyl-4,6-dichloro-2-{[(dimethylamino)methylene]amino}pyrimidine] | 67 to 68 °C
CCCCc1c(Cl)nc(N)nc1Cl [Substance 28, 2-amino-5-butyl-4,6-dichloropyrimidine] | 169 to 170 °C
CCCCc1c(Cl)nc(O)nc1Cl [Substance 65, 5-butyl-4,6-dichloro-2-hydroxypyrimidine] | 73 to 75 °C
C#CCc1c(Cl)nc(N)nc1Cl [Substance 33, 2-amino-4,6-dichloro-5-(prop-2-yn-1-yl)pyrimidine] | 159 to 161 °C
CCCCc1c(-c2cc3ccccc3o2)nc(N)nc1-c1cc2ccccc2o1 [Substance 47, 2-amino-4,6-bis(benzofuran-2-yl)-5-butylpyrimidine] | 142 to 144 °C
CCCc1c(Cl)nc(/N=C/N(C)C)nc1Cl [Substance 15, 4,6-dichloro-2-{[(dimethylamino)methylene]amino}-5-propylpyrimidine] | 76 to 78 °C
CC(C)c1c(Cl)nc(/N=C/N(C)C)nc1Cl [Substance 16, 4,6-dichloro-5-isopropyl-2-{[(dimethylamino)methylene]amino}pyrimidine] | 77 to 78 °C
CC(C)c1c(Cl)nc(NC=O)nc1Cl [Substance 53, 4,6-dichloro-2-formamido-5-isopropylpyrimidine] | 95 to 96 °C
O=CNc1nc(Cl)c(-c2ccccc2)c(Cl)n1 [Substance 56, 4,6-dichloro-2-formamido-5-phenylpyrimidine] | 95 to 96 °C
C=C(Cl)Cc1c(Cl)nc(NC=O)nc1Cl [Substance 60, 4,6-dichloro-5-(2-chloroallyl)-2-formamidopyrimidine] | 113 to 115 °C
CCCCc1c(Cl)nc(NC=O)nc1Cl [Substance 51, 5-butyl-4,6-dichloro-2-formamidopyrimidine] | 82 to 83 °C
CCCCc1c(-c2cccnc2)nc(N)nc1-c1cccnc1 [Substance 46, 2-amino-5-butyl-4,6-bis(pyridin-3-yl)pyrimidine] | 173 to 174 °C
C#CCc1c(Cl)nc(/N=C/N(C)C)nc1Cl [Substance 18, 4,6-dichloro-2-{[(dimethylamino)methylene]amino}-5-(prop-2-yn-1-yl)pyrimidine] | 82 to 83 °C
Cc1c(Cl)nc(/N=C/N(C)C)nc1Cl [Substance 13, 4,6-dichloro-5-methyl-2-{[(dimethylamino)methylene]amino}pyrimidine] | 84 to 86 °C
Nc1nc(Br)c(Cc2ccccc2)c(Br)n1 [Substance 40, 2-amino-5-benzyl-4,6-dibromopyrimidine] | 154 to 155 °C
Nc1nc(Cl)c(Cc2ccccc2)c(Cl)n1 [Substance 34, 2-amino-5-benzyl-4,6-dichloropyrimidine] | 196 to 197 °C
[2H]C([2H])([2H])C([2H])([2H])C([2H])([2H])C([2H])([2H])c1c(Cl)nc(N)nc1Cl [Substance 35, 2-amino-5-(perdeutero-butyl)-4,6-dichloropyrimidine] | 170 to 171 °C
CCc1c(Cl)nc(N)nc1Cl [Substance 26, 2-amino-4,6-dichloro-5-ethylpyrimidine] | 183 to 185 °C
Cc1c(Cl)nc(N)nc1Cl [Substance 25, 2-amino-4,6-dichloro-5-methylpyrimidine] | 189 to 190 °C
Cc1c(Cl)nc(NC=O)nc1Cl [Substance 48, 4,6-dichloro-2-formamido-5-methylpyrimidine] | 123 to 124 °C
CCCCc1c(Cl)nc(N)nc1-c1cc2ccccc2o1 [Substance 44, 2-amino-4-(benzofuran-2-yl)-5-butyl-6-chloropyrimidine] | 195 to 196 °C

Compound | melting point
CCCCc1c(-c2ccccc2)nc(N)nc1-c1ccccc1 [Substance 45, 2-amino-5-butyl-4,6-diphenylpyrimidine] | 154 to 155 °C
CCCCc1c(Cl)ncnc1Cl [Substance 61, 5-butyl-4,6-dichloropyrimidine] | 62 to 63 °C
CCC(C)c1c(Cl)nc(NC=O)nc1Cl (stereo not shown) [Substance 54, 5-(sec-butyl)-4,6-dichloro-2-formamidopyrimidine] | 92 to 93 °C
CCCc1c(Cl)nc(N)nc1Cl [Substance 27, 2-amino-4,6-dichloro-5-propylpyrimidine] | 182 to 183 °C
CCCCc1c(Cl)nc(N(C)C)nc1Cl [Substance 63, 5-butyl-4,6-dichloro-2-(dimethylamino)pyrimidine] | 42 to 45 °C
CC(C)c1c(Cl)nc(N)nc1Cl [Substance 29, 2-amino-4,6-dichloro-5-isopropylpyrimidine] | 175 to 176 °C
Nc1nc(Cl)c(-c2ccccc2)c(Cl)n1 [Substance 31, 2-amino-4,6-dichloro-5-phenylpyrimidine] | 193 to 195 °C
CCCCc1c(Cl)nc(N)nc1-c1cccnc1 [Substance 43, 2-amino-5-butyl-4-chloro-6-(pyridin-3-yl)pyrimidine] | 189 to 190 °C
[2H]C([2H])([2H])C([2H])([2H])C([2H])([2H])C([2H])([2H])c1c(Cl)nc(NC=O)nc1Cl [Substance 52, 5-(perdeutero-butyl)-4,6-dichloro-2-formamidopyrimidine] | 83 to 84 °C
CCCCc1c(Cl)nc(N)nc1-c1ccsc1 [Substance 42, 2-amino-5-butyl-4-chloro-6-(thiophen-3-yl)pyrimidine] | 154 to 155 °C
CCCCc1c(Cl)nc(N)nc1-c1ccccc1 [Substance 41, 2-amino-5-butyl-4-chloro-6-phenylpyrimidine] | 183 to 185 °C
Nc1nc(I)c(Cc2ccccc2)c(I)n1 [Substance 38, 2-amino-5-benzyl-4,6-diiodopyrimidine] | 198 to 199 °C
CCc1c(Cl)nc(NC=O)nc1Cl [Substance 49, 4,6-dichloro-5-ethyl-2-formamidopyrimidine] | 116 to 118 °C
CCCc1c(Cl)nc(NC=O)nc1Cl [Substance 50, 4,6-dichloro-2-formamido-5-propylpyrimidine] | 92 to 94 °C
C#CCc1c(Cl)nc(NC=O)nc1Cl [Substance 58, 4,6-dichloro-2-formamido-5-(prop-2-yn-1-yl)pyrimidine] | 127 to 128 °C
CN(C)/C=N/c1nc(Cl)c(Cc2ccccc2)c(Cl)n1 [Substance 23, 5-benzyl-4,6-dichloro-2-{[(dimethylamino)methylene]amino}pyrimidine] | 63 to 65 °C
C=CCc1c(Cl)nc(NC=O)nc1Cl [Substance 57, 5-allyl-4,6-dichloro-2-formamidopyrimidine] | 85 to 86 °C
CCC(C)c1c(I)nc(N)nc1I (stereo not shown) [Substance 36, 2-amino-5-(sec-butyl)-4,6-diiodopyrimidine] | 173 to 174 °C
CCCCCCc1c(Cl)nc(NC=O)nc1Cl [Substance 55, 4,6-dichloro-2-formamido-5-hexylpyrimidine] | 80 to 81 °C
CCCCc1c(Cl)nc(C)nc1Cl [Substance 62, 5-butyl-4,6-dichloro-2-methylpyrimidine] | 50 to 51 °C
C=CCc1c(Cl)nc(N)nc1Cl [Substance 32, 5-allyl-2-amino-4,6-dichloropyrimidine] | 175 to 177 °C
O=CNc1nc(Cl)c(Cc2ccccc2)c(Cl)n1 [Substance 59, 5-benzyl-4,6-dichloro-2-formamidopyrimidine] | 93 to 95 °C
CCc1c(Cl)nc(/N=C/N(C)C)nc1Cl [Substance 14, 4,6-dichloro-5-ethyl-2-{[(dimethylamino)methylene]amino}pyrimidine] | 78 to 80 °C
CCC(C)c1c(Cl)nc(N)nc1Cl (stereo not shown) [Substance 30, 2-amino-5-(sec-butyl)-4,6-dichloropyrimidine] | 159 to 160 °C

Tested on: Salmonella typhimurium TA 98 and TA 100, Escherichia coli WP2 uvrA
Settings: arrangement of FIG. 5 (TA 100); without metabolic activation; 1.5 μg
Method: With compound 28, its possible mutagenicity (genotoxicity) was assessed using the standard bacterial reverse mutation test. According to Council Regulation (ES) No. 440/2008, stipulating the test methods according to the European Parliament and Council regulation (ES), the method used was B.13/14, Mutagenicity—Reverse Mutation Test Using Bacteria, which is described in the same way also in the OECD Test Guideline No. 471.
[…] The experiments were conducted without using metabolic activation and after activation with supernatant S9 from […] livers and with mixtures of cofactors (NADP and glucoso-6-phosphate) to determine the mutagenicity of the metabolic products of the compound tested. Supernatant S9 was prepared according to the literature [Mutat. Res. 113, 173-215, 1983].
The principle of the test is to detect possible revertants created by reverse mutation, which would be induced in the bacterial culture by the tested compound. Specially constructed bacterial strains are used, carrying mutations in the place for his (trp), which are not capable of forming colonies on the minimum plates without histidine or tryptophan. […] Mutagenic potential is given by the growing number of revertants in the influenced groups in comparison with a negative control, and/or in dependence on the growing number of revertants on the dose of the tested compound.
Bacterial testers, types Salmonella typhimurium TA 98 (CCM 3811) and Escherichia coli WP2 uvrA (CCM 4751), were acquired from the Czech Collection of Microorganisms of Masaryk University, Brno and the strain Salmonella typhimurium TA100 (CIP 103796, lot No. 1008) from the Biological Resource Center, Institut Pasteur in Paris (CRBIP).

Compound | Number of revertants, positive control for −MA I
[N-]=[N+]=[N-] [sodium azide, reference compound] | > 500
